Assay results reported in ChEMBL document CHEMBL1201862, “PubChem BioAssay data set” (2004).
Activity calls are given as the source filed them. How the calls were made is not given here.

How the values were obtained:
Type in all cases: functional
[1] = target: High affinity nerve growth factor receptor (Homo sapiens, UniProt P04629);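 further: NTRK1 tested as one member of a kinome-wide profiling panel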
[2] = target: Death-associated protein kinase 3 (Homo sapiens, UniProt O43293);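 further: measured as one member of a kinome-wide profiling panel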
Chain of Death-associated protein kinase 3 (O43293 whole entry): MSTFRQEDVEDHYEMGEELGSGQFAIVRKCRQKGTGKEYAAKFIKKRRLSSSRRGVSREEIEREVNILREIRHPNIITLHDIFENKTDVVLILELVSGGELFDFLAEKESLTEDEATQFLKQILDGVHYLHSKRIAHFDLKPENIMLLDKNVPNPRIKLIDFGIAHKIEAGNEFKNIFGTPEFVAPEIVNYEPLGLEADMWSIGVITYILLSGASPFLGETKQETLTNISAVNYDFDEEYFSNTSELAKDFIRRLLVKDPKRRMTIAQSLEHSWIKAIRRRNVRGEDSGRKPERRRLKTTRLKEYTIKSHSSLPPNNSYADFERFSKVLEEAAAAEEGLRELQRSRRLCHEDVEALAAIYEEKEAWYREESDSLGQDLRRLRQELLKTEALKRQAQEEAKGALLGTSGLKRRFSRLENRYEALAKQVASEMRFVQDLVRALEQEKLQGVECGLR

[3] = target: G protein-coupled receptor kinase 5 (Homo sapiens, UniProt P34947); assay: Navigating the Kinome. Panel member name: GPRK5
[4] = target: T1, Serine/threonine-protein kinase TAO1 (Homo sapiens, UniProt Q7L7X3)
T1 sequence (Q7L7X3 whole entry): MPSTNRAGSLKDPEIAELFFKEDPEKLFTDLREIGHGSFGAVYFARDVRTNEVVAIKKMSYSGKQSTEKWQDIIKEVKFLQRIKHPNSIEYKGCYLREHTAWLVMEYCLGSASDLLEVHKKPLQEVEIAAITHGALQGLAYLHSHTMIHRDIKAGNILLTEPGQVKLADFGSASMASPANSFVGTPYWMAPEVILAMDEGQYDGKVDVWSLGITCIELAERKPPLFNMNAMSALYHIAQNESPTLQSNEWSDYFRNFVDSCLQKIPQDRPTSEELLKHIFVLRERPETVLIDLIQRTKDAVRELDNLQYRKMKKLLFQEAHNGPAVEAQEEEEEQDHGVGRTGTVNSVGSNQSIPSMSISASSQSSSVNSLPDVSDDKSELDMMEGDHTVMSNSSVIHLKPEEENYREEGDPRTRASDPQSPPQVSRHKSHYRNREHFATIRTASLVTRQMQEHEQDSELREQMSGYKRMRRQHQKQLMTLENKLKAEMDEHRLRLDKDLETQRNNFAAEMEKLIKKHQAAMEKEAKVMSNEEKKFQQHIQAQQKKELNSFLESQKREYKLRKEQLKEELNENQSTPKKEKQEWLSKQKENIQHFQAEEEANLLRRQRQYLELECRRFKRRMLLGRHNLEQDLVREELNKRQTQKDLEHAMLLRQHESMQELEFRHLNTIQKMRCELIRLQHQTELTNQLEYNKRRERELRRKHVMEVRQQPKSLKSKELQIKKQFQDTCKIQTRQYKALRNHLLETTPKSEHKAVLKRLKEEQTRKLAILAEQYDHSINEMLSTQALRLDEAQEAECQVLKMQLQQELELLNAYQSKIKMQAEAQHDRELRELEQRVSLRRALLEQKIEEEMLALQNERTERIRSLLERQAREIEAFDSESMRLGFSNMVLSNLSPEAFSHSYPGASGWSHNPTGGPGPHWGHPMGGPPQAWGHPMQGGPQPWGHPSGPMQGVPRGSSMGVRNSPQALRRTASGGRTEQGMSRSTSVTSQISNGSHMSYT

[5] = target: Proto-oncogene tyrosine-protein kinase receptor Ret (Homo sapiens, UniProt P07949);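 further: measured within a kinome-wide profiling panel, RET as the panel member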
[6] = target: Macrophage-stimulating protein receptor (Homo sapiens, UniProt Q04912); assay: Navigating the Kinome. Panel member name: MST1R
Chain of Macrophage-stimulating protein receptor (Q04912 25-304 limits assumed): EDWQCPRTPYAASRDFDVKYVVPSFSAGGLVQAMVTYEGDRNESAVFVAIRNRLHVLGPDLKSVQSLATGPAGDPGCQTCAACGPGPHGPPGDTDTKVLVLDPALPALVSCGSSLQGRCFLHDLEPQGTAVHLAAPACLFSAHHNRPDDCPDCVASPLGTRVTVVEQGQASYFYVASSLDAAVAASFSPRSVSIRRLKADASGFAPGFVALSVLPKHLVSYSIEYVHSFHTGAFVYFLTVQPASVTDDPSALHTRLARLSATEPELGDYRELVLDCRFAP
Chain of Macrophage-stimulating protein receptor (Q04912 310-1400 limits assumed): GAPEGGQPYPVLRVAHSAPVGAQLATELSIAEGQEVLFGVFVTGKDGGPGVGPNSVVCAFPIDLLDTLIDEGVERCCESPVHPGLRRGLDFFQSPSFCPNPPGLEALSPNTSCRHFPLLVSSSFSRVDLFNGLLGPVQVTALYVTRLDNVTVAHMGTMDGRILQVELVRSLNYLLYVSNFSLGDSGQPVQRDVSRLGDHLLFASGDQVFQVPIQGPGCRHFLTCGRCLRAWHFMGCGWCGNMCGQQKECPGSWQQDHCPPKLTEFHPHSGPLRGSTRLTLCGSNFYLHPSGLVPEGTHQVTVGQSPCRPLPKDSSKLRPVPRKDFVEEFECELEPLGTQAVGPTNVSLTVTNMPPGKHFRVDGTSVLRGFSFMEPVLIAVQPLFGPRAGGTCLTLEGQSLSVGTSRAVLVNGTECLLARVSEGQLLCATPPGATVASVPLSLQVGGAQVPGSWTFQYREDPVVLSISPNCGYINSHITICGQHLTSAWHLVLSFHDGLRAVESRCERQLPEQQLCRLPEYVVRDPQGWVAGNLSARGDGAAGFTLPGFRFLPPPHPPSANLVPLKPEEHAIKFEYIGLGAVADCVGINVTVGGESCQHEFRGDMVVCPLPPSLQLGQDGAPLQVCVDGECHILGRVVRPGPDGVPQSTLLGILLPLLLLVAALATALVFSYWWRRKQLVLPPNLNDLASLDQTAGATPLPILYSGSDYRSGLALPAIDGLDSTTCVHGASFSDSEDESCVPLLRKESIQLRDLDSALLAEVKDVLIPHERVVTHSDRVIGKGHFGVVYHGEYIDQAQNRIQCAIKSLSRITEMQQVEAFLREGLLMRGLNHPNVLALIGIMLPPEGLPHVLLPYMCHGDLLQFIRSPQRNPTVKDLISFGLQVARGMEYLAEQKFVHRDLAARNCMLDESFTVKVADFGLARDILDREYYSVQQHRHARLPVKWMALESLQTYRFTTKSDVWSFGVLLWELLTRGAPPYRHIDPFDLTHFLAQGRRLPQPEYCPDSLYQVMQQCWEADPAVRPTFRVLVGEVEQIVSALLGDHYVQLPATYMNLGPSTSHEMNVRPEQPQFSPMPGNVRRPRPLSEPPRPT

[7] = target: Platelet-derived growth factor receptor alpha (Homo sapiens, UniProt P16234); assay: Navigating the Kinome. Panel member name: PDGFRA
[8] = target: Dual specificity tyrosine-phosphorylation-regulated kinase 1B (Homo sapiens, UniProt Q9Y463); assay: Navigating the Kinome. Panel member name: DYRK1B
Chain of Dual specificity tyrosine-phosphorylation-regulated kinase 1B (Q9Y463 whole entry): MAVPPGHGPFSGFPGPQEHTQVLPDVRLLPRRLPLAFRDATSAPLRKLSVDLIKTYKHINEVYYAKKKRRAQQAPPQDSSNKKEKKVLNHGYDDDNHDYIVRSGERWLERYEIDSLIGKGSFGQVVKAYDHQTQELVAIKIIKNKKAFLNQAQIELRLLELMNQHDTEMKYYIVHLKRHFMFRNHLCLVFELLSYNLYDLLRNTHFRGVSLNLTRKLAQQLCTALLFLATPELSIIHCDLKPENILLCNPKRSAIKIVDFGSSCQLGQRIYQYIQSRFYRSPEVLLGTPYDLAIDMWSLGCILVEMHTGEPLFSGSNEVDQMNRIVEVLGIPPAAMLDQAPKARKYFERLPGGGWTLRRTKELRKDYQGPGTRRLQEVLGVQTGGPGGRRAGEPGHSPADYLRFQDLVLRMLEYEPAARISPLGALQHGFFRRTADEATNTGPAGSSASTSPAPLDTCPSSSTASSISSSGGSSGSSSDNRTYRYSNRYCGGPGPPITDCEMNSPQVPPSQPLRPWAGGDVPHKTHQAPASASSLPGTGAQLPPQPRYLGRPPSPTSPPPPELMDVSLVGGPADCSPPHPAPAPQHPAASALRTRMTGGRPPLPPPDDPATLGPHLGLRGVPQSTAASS

[9] = target: Fibroblast growth factor receptor 1 (Homo sapiens, UniProt P11362)
Chain of Fibroblast growth factor receptor 1 (P11362 whole entry): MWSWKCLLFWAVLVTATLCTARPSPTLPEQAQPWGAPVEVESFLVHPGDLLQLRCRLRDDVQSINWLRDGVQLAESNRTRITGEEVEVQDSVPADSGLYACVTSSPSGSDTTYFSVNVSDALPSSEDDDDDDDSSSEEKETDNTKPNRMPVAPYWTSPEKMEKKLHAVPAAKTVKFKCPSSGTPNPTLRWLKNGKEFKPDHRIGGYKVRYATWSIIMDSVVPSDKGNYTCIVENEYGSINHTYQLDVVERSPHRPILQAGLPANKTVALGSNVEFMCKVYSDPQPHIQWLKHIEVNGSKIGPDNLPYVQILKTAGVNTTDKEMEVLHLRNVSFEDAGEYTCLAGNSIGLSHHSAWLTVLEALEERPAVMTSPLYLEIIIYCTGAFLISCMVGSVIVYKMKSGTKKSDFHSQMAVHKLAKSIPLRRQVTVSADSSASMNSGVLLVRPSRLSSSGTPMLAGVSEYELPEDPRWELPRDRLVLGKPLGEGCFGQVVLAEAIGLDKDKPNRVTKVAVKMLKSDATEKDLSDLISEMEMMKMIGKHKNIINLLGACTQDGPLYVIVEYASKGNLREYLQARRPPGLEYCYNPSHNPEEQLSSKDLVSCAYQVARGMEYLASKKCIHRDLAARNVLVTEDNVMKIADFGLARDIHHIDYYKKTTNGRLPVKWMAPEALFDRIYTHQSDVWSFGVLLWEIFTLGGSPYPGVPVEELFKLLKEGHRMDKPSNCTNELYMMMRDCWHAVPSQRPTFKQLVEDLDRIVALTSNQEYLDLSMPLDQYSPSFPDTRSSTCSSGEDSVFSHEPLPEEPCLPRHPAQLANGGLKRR

[10] = target: Calcium/calmodulin-dependent protein kinase type II subunit alpha (Homo sapiens, UniProt Q9UQM7); assay: Navigating the Kinome. Panel member name: CAMK2A
Chain of Calcium/calmodulin-dependent protein kinase type II subunit alpha (Q9UQM7 whole entry): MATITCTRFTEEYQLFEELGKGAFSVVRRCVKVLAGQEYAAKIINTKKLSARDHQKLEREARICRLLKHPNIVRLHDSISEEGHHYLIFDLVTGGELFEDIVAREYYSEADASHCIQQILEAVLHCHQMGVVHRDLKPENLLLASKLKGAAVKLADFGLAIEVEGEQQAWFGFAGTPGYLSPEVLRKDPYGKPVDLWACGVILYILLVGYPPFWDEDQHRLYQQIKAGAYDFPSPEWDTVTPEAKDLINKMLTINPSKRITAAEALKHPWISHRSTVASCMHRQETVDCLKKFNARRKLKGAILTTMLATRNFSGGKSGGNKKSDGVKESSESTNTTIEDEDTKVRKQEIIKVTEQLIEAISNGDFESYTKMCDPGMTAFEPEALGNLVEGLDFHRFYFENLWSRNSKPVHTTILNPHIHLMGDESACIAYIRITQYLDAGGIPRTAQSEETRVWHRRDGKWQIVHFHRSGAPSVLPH

Activin receptor type-1 = target: T2, Activin receptor type-1 (Homo sapiens, UniProt Q04771); assay: Navigating the Kinome. Panel member name: ACVR1
T2 sequence (Q04771 whole entry): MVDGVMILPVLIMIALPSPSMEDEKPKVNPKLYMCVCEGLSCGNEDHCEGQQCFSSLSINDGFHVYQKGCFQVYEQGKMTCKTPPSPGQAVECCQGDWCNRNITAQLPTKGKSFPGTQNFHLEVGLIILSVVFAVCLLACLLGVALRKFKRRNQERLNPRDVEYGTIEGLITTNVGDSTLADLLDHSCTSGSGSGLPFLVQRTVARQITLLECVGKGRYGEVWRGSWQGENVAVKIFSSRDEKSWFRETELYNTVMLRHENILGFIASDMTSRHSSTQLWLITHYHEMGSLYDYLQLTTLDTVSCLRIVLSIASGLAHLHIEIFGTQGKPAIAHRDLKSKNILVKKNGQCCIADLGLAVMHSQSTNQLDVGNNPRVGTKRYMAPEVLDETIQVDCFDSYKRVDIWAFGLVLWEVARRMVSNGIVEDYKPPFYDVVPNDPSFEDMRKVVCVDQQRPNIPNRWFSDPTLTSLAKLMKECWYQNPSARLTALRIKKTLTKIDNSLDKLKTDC

[11] = target: T3, cAMP-dependent protein kinase catalytic subunit PRKX (Homo sapiens, UniProt P51817)
T3 sequence (P51817 whole entry): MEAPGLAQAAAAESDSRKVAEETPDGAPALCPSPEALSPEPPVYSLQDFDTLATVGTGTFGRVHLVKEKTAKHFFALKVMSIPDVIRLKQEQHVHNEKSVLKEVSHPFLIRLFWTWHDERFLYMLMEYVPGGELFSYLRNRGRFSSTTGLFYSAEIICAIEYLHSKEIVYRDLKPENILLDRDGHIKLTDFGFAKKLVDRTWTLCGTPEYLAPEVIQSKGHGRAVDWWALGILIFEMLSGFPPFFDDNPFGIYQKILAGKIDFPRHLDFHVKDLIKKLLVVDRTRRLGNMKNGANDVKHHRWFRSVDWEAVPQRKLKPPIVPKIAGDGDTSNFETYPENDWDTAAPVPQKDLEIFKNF

Chain of High affinity nerve growth factor receptor (P04629 whole entry): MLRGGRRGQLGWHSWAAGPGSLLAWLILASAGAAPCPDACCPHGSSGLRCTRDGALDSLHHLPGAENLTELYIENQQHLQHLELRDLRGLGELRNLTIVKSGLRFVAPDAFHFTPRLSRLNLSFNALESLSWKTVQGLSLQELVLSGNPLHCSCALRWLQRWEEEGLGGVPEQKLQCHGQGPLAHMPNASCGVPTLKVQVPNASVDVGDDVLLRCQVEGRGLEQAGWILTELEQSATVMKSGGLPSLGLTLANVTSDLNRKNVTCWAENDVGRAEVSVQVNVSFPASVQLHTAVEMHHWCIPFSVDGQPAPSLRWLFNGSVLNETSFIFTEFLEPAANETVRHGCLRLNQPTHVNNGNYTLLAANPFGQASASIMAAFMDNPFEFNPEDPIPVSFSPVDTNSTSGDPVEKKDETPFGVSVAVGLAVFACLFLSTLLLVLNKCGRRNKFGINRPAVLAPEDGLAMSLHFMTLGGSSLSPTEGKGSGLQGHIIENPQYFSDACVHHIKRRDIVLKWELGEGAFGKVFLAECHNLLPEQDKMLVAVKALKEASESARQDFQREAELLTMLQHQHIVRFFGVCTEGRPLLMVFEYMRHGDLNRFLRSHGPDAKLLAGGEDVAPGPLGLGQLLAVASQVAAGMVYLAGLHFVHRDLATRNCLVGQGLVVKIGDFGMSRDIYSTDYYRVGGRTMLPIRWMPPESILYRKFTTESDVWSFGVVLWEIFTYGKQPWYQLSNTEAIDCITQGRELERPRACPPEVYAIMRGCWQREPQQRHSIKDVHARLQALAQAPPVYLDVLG

Row | Ki [1] | Ki [3] | Ki [4] | Ki [5] | Ki [6] | Ki [7] | Ki [8] | Ki [9] | Ki [10] | Ki (Activin receptor type-1) | Ki [11] | SMILES | Ki [2]
1 | > 3.16 µM (inactive) | > 3.98 µM (inactive) | > 6.31 µM (inactive) | > 3.16 µM (inactive) | > 3.98 µM (inactive) | > 2.51 µM (inactive) | > 2.51 µM (inactive) | > 3.98 µM (inactive) | > 3.98 µM (inactive) | > 3.98 µM (inactive) | > 3.16 µM (inactive) | COc1cccc(C(C)NC(=O)c2sc(-c3ccncc3)nc2C)c1 (stereo unspecified) | > 5.01 µM (inactive)
2 | > 3.16 µM (inactive) | > 3.98 µM (inactive) | > 6.31 µM (inactive) | > 3.16 µM (inactive) | > 3.98 µM (inactive) | > 2.51 µM (inactive) | 0.0398 µM (active) | > 3.98 µM (inactive) | > 7.94 µM (inactive) | > 3.98 µM (inactive) | > 3.16 µM (inactive) | CCCCC(=O)Nc1cc(-c2c[nH]c3ncccc23)cc(Cl)n1 | > 3.16 µM (inactive)
3 | > 3.16 µM (inactive) | > 3.98 µM (inactive) | > 6.31 µM (inactive) | > 3.16 µM (inactive) | > 3.98 µM (inactive) | > 3.16 µM (inactive) | > 2.51 µM (inactive) | > 3.98 µM (inactive) | > 3.98 µM (inactive) | > 3.16 µM (inactive) | > 3.16 µM (inactive) | Oc1ccc(-c2nc(-c3ccncc3)c(-c3ccc(F)cc3)[nH]2)cc1 [SB-202190] | > 5.01 µM (inactive)
